Laboratory results as given in patent US5747235A, “Silver halide light sensitive emulsion layer having enhanced photographic sensitivity” (Eastman Kodak Company, priority 1996, dated 1998).
Where two headings read alike, the source gives them in different places.

Tests used:
[1] = known acceptors used in flash photolysis; cited from earlier work
[2] = Example 15: photographic sensitivity and fog, color format, blue sensitized emulsion T-2; conditions: for Photographic Sensitivity SWR2B: control=100
Experimental: (§1) The AgBrI tabular silver halide emulsion T-2 from Example 3 was optimally chemically and spectrally sensitized by adding NaSCN, 1.07 mmole of the blue sensitizing dye D-I per mole of silver, Na3 Au(S2 O3)2 ·2H2 O, Na2 S2 O3 ·5H2 O, and a benzothiazolium finish modifier and then subjecting the emulsion to a heat cycle to 65° C. The hydroxybenzene, 2,4-disulfocatechcol (HB3) at a concentration of 13×10^-3 mole/mole Ag was added to the emulsion melt before the start of the chemical sensitization procedure. This chemically sensitized emulsion was then used to prepare the experimental coating variations given in Table X. For all the variations in Table X, the antifoggant and stabilizer tetraazaindene (TAI) was added to the emulsion melt in an amount of 1.75 g/mole Ag before any further addenda. The fragmentable two-electron donors S-3, S-9, S-6, or S-8 were then added to the emulsion melt.
(§2) The melts were prepared for coating by adding additional water, deionized gelatin and coating surfactants. Coatings were prepared by combining the emulsion melts with a melt containing deionized gelatin and an aqueous dispersion of the cyan-forming color coupler CC-1 and coating the resulting mixture on acetate support. The final coatings contained Ag at 0.81 g/m^2, coupler at 1.61 g/m^2, and gelatin at 3.23 g/m^2. The coatings were overcoated with a protective layer containing gelatin at 1.08 g/m^2, coating surfactants, and a bisvinylsulfonylmethyl ether as a gelatin hardening agent. The structure of the color coupler CC-1 is given below: [drawing 120]
(§3) For photographic evaluation, each of the coating strips was exposed for 0.01 sec to a 3000K color temperature tungsten lamp filtered to give an effective color temperature of 5500K and further filtered through a Kodak Wratten filter number 2B, and a step wedge ranging in density from 0 to 4 density units in 0.20 density steps. This exposure gives light absorbed mainly by the blue sensitizing dye. The exposed film strips were developed for 31/4 minutes in Kodak C-41 color developer. SWR2B, relative sensitivity for this filtered exposure, was evaluated at a cyan density of 0.15 units above fog.
(§4) The AgBrl tabular emulsion T-2 as described in Example 3 was sensitized as described in Example 10 except that the hydroxybenzene HB3 was added at the completion of the chemical sensitization procedure. For all the variations in Table XV the antifoggant and stabilizer tetraaazindene (TAI) was added to the emulsion melt in an amount of 1.75 g/mole Ag before any further addenda. The fragmentable electron donor compounds S-19, PMT-3, and PMT-4 were then added to the emulsion melt. The melts were then coated and tested as described in Example 10.

[3] = cited from earlier work
[4] = Example 16: photographic sensitivity and fog, color format, blue sensitized emulsion T-2; conditions: control=100
[5] = as above
Experimental: as §1, §2, §3
as §4, with “XVI,” for “XV”, “tetraazaindene (TAI),” for “tetraaazindene (TAI)”, “two-electron” for “electron”, “TU-2” for “S-19, PMT-3,”, “TU-3” for “PMT-4”

O=C1C(Cl)=C(Cl)C(=O)C(Cl)=C1Cl [2,3,5,6-tetrachlorobenzoquinone]
reduction potential (Ered) [1]: 0.00 V

O=C1C=C(Cl)C(=O)C=C1Cl [2,5-dichlorobenzoquinone]
reduction potential (Ered) [1]: -0.18 V

CC(C(=O)O)N(CC(=O)O)c1ccc(S(=O)(=O)N2CCSCC2)cc1 (stereo not shown) [Compound S-19]
Fog ([2]; 4.4 x10^-6 mol/mol Ag): 0.06 | Photographic Sensitivity SWR2B ([2]; 4.4 x10^-6 mol/mol Ag): 115 | Fog ([2]; 8.8 x10^-6 mol/mol Ag): 0.08 | Photographic Sensitivity SWR2B ([2]; 8.8 x10^-6 mol/mol Ag): 112

N#Cc1c2ccccc2c(C#N)c2ccccc12 [DCA, 9,10-dicyanoanthracene]
reduction potential (Ered) [1]: -0.91 V

CC(C(=O)O)N(CCC(=O)Nc1cccc(-n2nnnc2S)c1)c1ccc(C=O)cc1 (stereo not shown) [PMT-3]
Fog ([2]; 0.045 x10^-6 mol/mol Ag): 0.07 | Photographic Sensitivity SWR2B ([2]; 0.045 x10^-6 mol/mol Ag): 151 | Fog ([2]; 0.14 x10^-6 mol/mol Ag): 0.08 | Photographic Sensitivity SWR2B ([2]; 0.14 x10^-6 mol/mol Ag): 151 | Fog ([2]; 0.45 x10^-6 mol/mol Ag): 0.07 | Photographic Sensitivity SWR2B ([2]; 0.45 x10^-6 mol/mol Ag): 141

CC(C(=O)O)N(CC(=O)O)c1ccc(S(=O)(=O)Nc2cccc(-n3nnnc3S)c2)cc1 (stereo not shown) [PMT-4]
Fog ([2]; 0.14 x10^-6 mol/mol Ag): 0.06 | Photographic Sensitivity SWR2B ([2]; 0.14 x10^-6 mol/mol Ag): 115 | Fog ([2]; 0.45 x10^-6 mol/mol Ag): 0.07 | Photographic Sensitivity SWR2B ([2]; 0.45 x10^-6 mol/mol Ag): 120

[Cl][Sn][Cl] [SnCl2]
oxidation potential ([3]; SnCl2, CRC Handbook): ~ -0.10 V

N#Cc1ccc2c(C#N)c3cc(C#N)ccc3c(C#N)c2c1 [TCA, tetracyanoanthracene]
reduction potential (Ered) [1]: -0.44 V

CC(C(=O)O)N(CCC(=O)N(C)CCN(C)C(=S)N(C)C)c1ccccc1 (stereo not shown) [TU-2]
Photographic Sensitivity SWR3B ([4]; 0.45 x10^-6 mol/molAg): 118 | Photographic Sensitivity SWR3B ([4]; 1.4 x10^-6 mol/molAg): 135 | Photographic Sensitivity SWR3B ([4]; 4.5 x10^-6 mol/molAg): 159 | Fog ([5]; 0.45 x10^-6 mol/molAg): 0.08 | Fog ([5]; 1.4 x10^-6 mol/molAg): 0.09 | Fog ([5]; 4.5 x10^-6 mol/molAg): 0.11

CC(C(=O)O)N(CCC(=O)N(C)CCN(C)C(=S)N(C)C)c1ccc(C=O)cc1 (stereo not shown) [TU-3]
Photographic Sensitivity SWR3B ([4]; 14 x10^-6 mol/molAg): 145 | Photographic Sensitivity SWR3B ([4]; 45 x10^-6 mol/molAg): 155 | Photographic Sensitivity SWR3B ([4]; 140 x10^-6 mol/molAg): 166 | Fog ([5]; 14 x10^-6 mol/molAg): 0.09 | Fog ([5]; 45 x10^-6 mol/molAg): 0.09 | Fog ([5]; 140 x10^-6 mol/molAg): 0.10

N#Cc1ccc2c(C#N)c3ccccc3c(C#N)c2c1 [TriCA, 2,9,10-tricyanoanthracene]
reduction potential (Ered) [1]: -0.67 V

B [borohydride]
oxidation potential ([3]; literature): -0.48 V vs SCE

O=C1C=CC(=O)C(Cl)=C1 [chlorobenzoquinone]
reduction potential (Ered) [1]: -0.34 V
